Like-named read-outs stand apart in the source and are kept apart here.
Legend:
[1] = PBM cell proliferation (cytotoxicity) assay; type: cell-based; conditions: human
Protocol: (§1) PBM and CEM Cells Proliferation Assay: The drugs were evaluated for their potential toxic effects on uninfected PHA-stimulated human PBM cells and also in CEM cells. The cells were cultured with and without drug for 6 days at which time aliquots were counted for cell viability as described above. Median-Effect Method: EC50 and IC50 values were obtained by analysis of the data using the median-effect equation (Chou, T., et al., “Quantitative Analysis of Dose-Effect Relationships: The Combined Effects of Multiple Drugs or Enzyme Inhibitors,” Adv. Enz. Regul. 22, 27-55 (1984).

[2] = CEM cell proliferation (cytotoxicity) assay; type: cell-based; conditions: human
Protocol: as §1

[3] = tested on: nucleosides of adenine, cytosine, thymine, and guanine; assay: Methylene blue plus light treatment of nucleosides (HPLC); type: biochemical; conditions: methylene blue plus light 15 min
Protocol: The nucleosides of adenine, cytosine, thymine, and guanine (approximately 200 nmoles each) were also subjected to methylene blue (20 μl into 2.0 mls final total volume) plus light treatment (100 watt incandescent light 11 cm over solution for 15 min).

RNA virus R17 [4] = assay: Inactivation of RNA virus R17, plaque titer on E. coli lawn; type: cell-based, R17 phage; conditions: for PFU: MB 0.05 uM
Protocol: Add 20 μl φ (R17 phage) stock to 2.0 ml dilution buffer and dispense 0.3 ml into each of tubes A-F. Next add methylene blue to give concentrations shown in Table 2 below. Pipet 270 μl of samples to be light treated into the #1 wells of a 96 well microtiter plate, corresponding to its letter label A-H. The samples in the microtiter plate were exposed to light through water (¼ cm) deep in a petri dish for 5 minutes. 270 μl of each sample not to be light treated was then added to wells in the plate.
R17 virus samples were also tested to determine the time of exposure of light required to inactivate the virus. […] The length of exposure was varied as follows:
Add 0.3 ml to well H2, treat with light 0-5 min. Add 0.3 ml to well G2, treat with light 5 min-7.5 min. Add 0.3 ml to well F2, treat with light 7.5 min-9.0 min. Add 0.3 ml to well E2, treat with light 9.0 min-9.5 min. Add 0.3 ml to well D2, treat with light 9.5 min-9.9 min. Add 0.3 ml to well C2, treat with light 9.9 min-10.0 min. Add 0.3 ml to well B, no light. Add 0.3 ml to well A, no light.

HIV (LAV-I) = assay: HIV in human PBMC, P24 levels by EIA; type: cell-based; conditions: for inhibition at 0.001 µM / inhibition at 0.01 µM / inhibition at 1 µM / inhibition at 10 µM / inhibition at 0.1 µM / EC50: Human immunodeficiency virus 1, PBMC
Protocol: While the previous example measured RT activity, the present example utilizes a direct quantitation of a viral protein (P24) as an indicator of antiviral effectiveness.
Peripheral blood mononuclear (PBM) cells were infected with HIV and treated with methylene blue as described above. The EC50 levels were calculated from enzyme immuno-assay (EIA) measurements of viral coat protein P24. The P24-specific EIA kit was purchased from Abbott Labs.

[5] = target: T1, HIV-1 reverse transcriptase (RT) (Human immunodeficiency virus type 1 group M subtype B, UniProt P03367); assay: HIV-1 reverse transcriptase enzyme assay; type: biochemical
T1 construct: HIV reverse transcriptase (RT); endogenous in cells; host or cells: HIV-1-infected PHA-stimulated human PBM cells
Excerpt: (§2) Enzyme Assays: The preparation of the enzyme and the assay conditions used, were recently described by Schinazi, et al., Antimicrob. Agents Chemother. 33, 115-117 (1989). HIV-1 RT and cellular DNA polymerase alpha were isolated from infected and uninfected PHA-stimulated human PBM cells according to traditional methods (Eriksson, B., et al., Antimicrob. Agents Chemother. 31, 600-604, (1987); Furman, et al., Proc. Natl. Acad. Sci. USA 83, 8333-8337, (1986); Abrell, et al., J. Virol. 12, 431-439, (1973).
(§3) Assays. Reaction mixtures (100 μl) contained:
(§4) The reactions were started by the addition of 10 μl of purified enzyme, incubated at 37° C. for the indicated periods of time and processed as described in Eriksson, et al., Antimicrob. Agents Chemother. 31, 600-604 (1987).
(§5) Median-Effect Method: EC50 and IC50 values were obtained by analysis of the data using the median-effect equation (Chou, T., et al., “Quantitative Analysis of Dose-Effect Relationships: The Combined Effects of Multiple Drugs or Enzyme Inhibitors,” Adv. Enz. Regul. 22, 27-55 (1984).
(§6) The effect of methylene blue on two DNA polymerizing enzymes, HIV reverse transcriptase (RT) and calf thymus DNA polymerase alpha (CT α pol), was also studied.

[6] = target: T2, calf thymus DNA polymerase alpha (CT α pol) (Bos taurus, UniProt A0AAA9TD94); assay: DNA polymerase alpha enzyme assay; type: biochemical
T2 construct: calf thymus DNA polymerase alpha (CT α pol); from tissue; host or cells: calf thymus
T2 sequence (A0AAA9TD94 entry or part of it): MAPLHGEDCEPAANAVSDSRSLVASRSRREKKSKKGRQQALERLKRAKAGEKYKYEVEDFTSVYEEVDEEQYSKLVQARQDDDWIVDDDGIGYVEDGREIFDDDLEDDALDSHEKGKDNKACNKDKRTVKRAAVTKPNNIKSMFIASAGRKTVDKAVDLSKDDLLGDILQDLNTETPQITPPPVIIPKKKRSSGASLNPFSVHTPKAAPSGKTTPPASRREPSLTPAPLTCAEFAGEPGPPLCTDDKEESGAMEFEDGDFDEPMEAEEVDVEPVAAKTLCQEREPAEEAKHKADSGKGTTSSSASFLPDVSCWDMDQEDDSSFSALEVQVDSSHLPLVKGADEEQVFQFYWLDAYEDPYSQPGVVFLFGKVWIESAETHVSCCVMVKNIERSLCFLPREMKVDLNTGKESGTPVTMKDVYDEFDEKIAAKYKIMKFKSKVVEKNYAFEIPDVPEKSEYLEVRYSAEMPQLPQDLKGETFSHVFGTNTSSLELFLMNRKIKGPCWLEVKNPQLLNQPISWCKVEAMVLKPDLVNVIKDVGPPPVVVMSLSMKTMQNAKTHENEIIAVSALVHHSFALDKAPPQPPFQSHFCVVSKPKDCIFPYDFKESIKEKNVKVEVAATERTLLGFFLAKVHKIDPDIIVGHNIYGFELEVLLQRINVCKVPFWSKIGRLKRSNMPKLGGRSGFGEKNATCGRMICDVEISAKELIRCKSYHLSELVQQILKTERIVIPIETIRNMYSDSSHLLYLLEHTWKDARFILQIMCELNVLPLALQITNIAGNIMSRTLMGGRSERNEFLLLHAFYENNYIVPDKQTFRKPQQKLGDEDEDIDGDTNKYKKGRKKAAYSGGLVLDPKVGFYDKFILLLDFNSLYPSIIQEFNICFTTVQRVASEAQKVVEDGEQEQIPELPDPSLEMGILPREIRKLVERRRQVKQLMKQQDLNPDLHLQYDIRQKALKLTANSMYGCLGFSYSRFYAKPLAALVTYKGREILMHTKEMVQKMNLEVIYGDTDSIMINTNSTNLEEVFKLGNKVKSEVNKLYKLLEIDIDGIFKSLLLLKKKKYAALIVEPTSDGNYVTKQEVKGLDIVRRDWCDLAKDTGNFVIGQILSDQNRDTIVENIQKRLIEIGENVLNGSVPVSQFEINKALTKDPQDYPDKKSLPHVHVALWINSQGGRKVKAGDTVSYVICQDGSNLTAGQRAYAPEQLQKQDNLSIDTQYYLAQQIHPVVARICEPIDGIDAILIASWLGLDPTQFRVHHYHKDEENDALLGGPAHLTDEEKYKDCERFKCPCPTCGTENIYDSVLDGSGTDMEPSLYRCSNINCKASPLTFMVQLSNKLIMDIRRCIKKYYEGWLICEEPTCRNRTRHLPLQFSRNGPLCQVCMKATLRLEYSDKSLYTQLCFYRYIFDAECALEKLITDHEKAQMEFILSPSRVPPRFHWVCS
Excerpt: as §2, §3, §4, §5, §6

RNA virus R17 [7] = assay: Inactivation of RNA virus R17, plaque titer on E. coli lawn; type: cell-based, R17 phage
[8] = Ziv and Heavner 1984; cited from earlier work
[9] = cited from earlier work
[10] = sheep, cited from earlier work

Nc1nc2c(ncn2COCCO)c(=O)[nH]1 [ACV, Acyclovir]
IC50 at 6 days [1]: > 100 µM | IC50 at 6 days [2]: > 100 µM

CN(C)c1ccc2nc3ccc(N(C)C)cc3[s+]c2c1.[Cl-] [MB, 3,7-Bis(dimethylamino)phenothiazin-5-ium chloride]
formation of hydroxylated derivative from nucleosides [3]: Only deoxyguanosine reacted to form the hydroxylated derivative | light exposure inactivating infectivity 50% (RNA virus R17 [4]; 0.05 μM methylene blue): 45 s | pfu/ml (RNA virus R17 [4]; MB 0.02 uM, light 5′ yes): 5.04 × 10^10 pfu/ml | pfu/ml (RNA virus R17 [4]; MB 0.04 uM, light 5′ yes): 1.11 × 10^10 pfu/ml | t½ of R17 inactivation (RNA virus R17 [4]; MB 0.05 uM and light): 48 to 60 s | PFU (RNA virus R17 [4]; light 0.1 min): 3.3 × 10^9/ml PFU/ml | PFU (RNA virus R17 [4]; light 0.5 min): 5.0 × 10^9/ml PFU/ml | PFU (RNA virus R17 [4]; light 2.5 min): 9.1 × 10^7/ml PFU/ml | PFU (RNA virus R17 [4]; light 5.0 min): 6.93 × 10^7/ml PFU/ml | PFU (RNA virus R17 [4]; light exposure none): 2.76 × 10^9/ml PFU/ml | pfu/ml (RNA virus R17 [4]; MB 0.2 uM, light 5′ yes): 3.25 × 10^5 pfu/ml | pfu/ml (RNA virus R17 [4]; MB 2.0 uM, light 5′ yes): 3.00 × 10^3 pfu/ml | pfu/ml (RNA virus R17 [4]; MB 2.0 uM, light no): 4.80 × 10^10 pfu/ml | pfu/ml (RNA virus R17 [4]; MB 20.0 uM, light 5′ yes): 4.20 × 10^4 pfu/ml | pfu/ml (RNA virus R17 [4]; MB 20.0 uM, light no): 3.00 × 10^9 pfu/ml | ng P24/ml (HIV (LAV-I); Dark, 0.001 μM): 356.0 ng P24/ml | ng P24/ml (HIV (LAV-I); Dark, 0.01 μM): 270.2 ng P24/ml | ng P24/ml (HIV (LAV-I); Dark, 1 μM): 84.1 ng P24/ml | ng P24/ml (HIV (LAV-I); Dark, 10 μM): 5.4 ng P24/ml | ng P24/ml (HIV (LAV-I); Dark, .1 μM): 287.2 ng P24/ml | inhibition at 0.001 µM (HIV (LAV-I); read-out: % Inhibition (corrected), Dark, 0.001 μM): 0.8% | inhibition at 0.01 µM (HIV (LAV-I); read-out: % Inhibition (corrected), Dark, 0.01 μM): 24.7% | inhibition at 1 µM (HIV (LAV-I); read-out: % Inhibition (corrected), Dark, 1 μM): 76.6% | inhibition at 10 µM (HIV (LAV-I); read-out: % Inhibition (corrected), Dark, 10 μM): 98.5% | inhibition at 0.1 µM (HIV (LAV-I); read-out: % Inhibition (corrected), Dark, .1 μM): 20% | inhibition at 0.001 µM (HIV (LAV-I); read-out: % Inhibition (corrected), Light, 0.001 μM): -3.2% | inhibition at 0.01 µM (HIV (LAV-I); read-out: % Inhibition (corrected), Light, 0.01 μM): -3.2% | inhibition at 1 µM (HIV (LAV-I); read-out: % Inhibition (corrected), Light, 1 μM): 98.6% | inhibition at 10 µM (HIV (LAV-I); read-out: % Inhibition (corrected), Light, 10 μM): 99.4% | inhibition at 0.1 µM (HIV (LAV-I); read-out: % Inhibition (corrected), Light, .1 μM): 15.8% | EC50 (HIV (LAV-I); read-out: EC50 (P24), Dark): 0.33 µM | EC50 (HIV (LAV-I); read-out: EC50 (P24), Light): 0.024 µM | ng P24/ml (HIV (LAV-I); Light, 0.001 μM): 370.5 ng P24/ml | ng P24/ml (HIV (LAV-I); Light, 0.01 μM): 370.5 ng P24/ml | ng P24/ml (HIV (LAV-I); Light, 1 μM): 5.1 ng P24/ml | ng P24/ml (HIV (LAV-I); Light, 10 μM): 2.2 ng P24/ml | ng P24/ml (HIV (LAV-I); Light, .1 μM): 302.2 ng P24/ml | IC50 ([5]; Dark): 10 µM | IC50 ([5]; Light): 9.2 µM | IC50 ([6]; Dark): 105 µM | IC50 ([6]; Light): 125 µM | inactivation of R17 (ability to form plaques) (RNA virus R17 [7]; 0.02 μM methylene blue plus light for 15 min): causes inactivation of R17 | PFU (RNA virus R17 [7]; MB 0.05 uM, light 1.0 min): 1.0 × 10^9/ml PFU/ml | crossing of the blood-milk barrier [8]: crosses the blood-milk barrier easily | absorption from the GI tract ([9]; American Hospital Formulary Service): absorbed well from the GI tract | excreted in urine and via the bile ([9]; mostly as leukomethylene blue): about 75% | methemoglobin production ([10]; doses as high as 50 mg/kg): minimal methemoglobin production | hematologic changes ([10]; up to four weeks after a total dose of 30 mg/kg): no hematologic changes | overall elimination rate constant [10]: 0.0076 ± 0.016 min⁻¹

Source: patent publication US6346529B1, “Antiviral therapy using thiazine dyes” (Oklahoma Medical Research Foundation, priority 1988, dated 2002)
